One assay concerns the target Recombinant human FGFR2 (Homo sapiens, UniProt P21802). The experiment in a line: Transcreener Kinase Assay of FGFR2. It counts as biochemical.
For a further assay, the target named is Recombinant human FGFR1 (Homo sapiens, UniProt P11362). The experiment in a line: Transcreener Kinase Assay of FGFR1. It counts as biochemical. In outline:
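Recombinant human FGFR1 was reacted with Poly E4Y substrate and ATP for 45 min at 28 °C, with compounds at 1 to 0.0005 µM in 1% DMSO final. Inhibition is relative to the DMSO control, with IC50 from a curve fit.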

The next assay concerns KG-1. The experiment in a line: Cellular Proliferation Assay (Cell Counting Kit-8), KG-1. It counts as cell-based. To be noted: Homo sapiens; KG-1 cells, 72 hours; read-out: KG1 IC50. The procedure, abridged: (§1)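 Seeding per well: KG-1 30000, SNU-16 5000, RT-112 1000 cells. After 24 h an 8-point series (working dilutions 10 to 0.004 μM in 5% DMSO) was added for 72 h at 37 °C, 5% CO2. CCK-8 OD450 after 1 h, corrected for media background and normalised to untreated cells, gave IC50.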
(Tetrazolium assays rely on reduction of a dye to a coloured formazan, in cell work by metabolically active cells.)

For another assay, the system named is RT-112. The experiment in a line: Cellular Proliferation Assay (Cell Counting Kit-8), RT-112. To be noted: Homo sapiens; RT-112 cells, 72 hours. It counts as cell-based. In outline: as §1
The next assay deals with FGFR3 kinase (Homo sapiens, UniProt P22607). The experiment in a line: Z-Lyte Kinase Assay of FGFR3. It counts as biochemical. The procedure, abridged:
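Z-LYTE FRET assay, kinase 0.7 μg/ml with Tyr 4 peptide 4 μM (P/K solution), ATP diluted to 300 uM in 1.33× buffer; compound final 1 to 0.00046 μM, 2% DMSO.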

Another assay has as its system SNU-16. The experiment in a line: Cellular Proliferation Assay (Cell Counting Kit-8), SNU-16. It counts as cell-based. To be noted: Homo sapiens; SNU-16 cells, 72 hours. The procedure, abridged: as §1

Molecules are shown by their SMILES. Read-outs that look alike come from different tables or passages of the source.

Chain of Recombinant human FGFR2 (P21802 22-821): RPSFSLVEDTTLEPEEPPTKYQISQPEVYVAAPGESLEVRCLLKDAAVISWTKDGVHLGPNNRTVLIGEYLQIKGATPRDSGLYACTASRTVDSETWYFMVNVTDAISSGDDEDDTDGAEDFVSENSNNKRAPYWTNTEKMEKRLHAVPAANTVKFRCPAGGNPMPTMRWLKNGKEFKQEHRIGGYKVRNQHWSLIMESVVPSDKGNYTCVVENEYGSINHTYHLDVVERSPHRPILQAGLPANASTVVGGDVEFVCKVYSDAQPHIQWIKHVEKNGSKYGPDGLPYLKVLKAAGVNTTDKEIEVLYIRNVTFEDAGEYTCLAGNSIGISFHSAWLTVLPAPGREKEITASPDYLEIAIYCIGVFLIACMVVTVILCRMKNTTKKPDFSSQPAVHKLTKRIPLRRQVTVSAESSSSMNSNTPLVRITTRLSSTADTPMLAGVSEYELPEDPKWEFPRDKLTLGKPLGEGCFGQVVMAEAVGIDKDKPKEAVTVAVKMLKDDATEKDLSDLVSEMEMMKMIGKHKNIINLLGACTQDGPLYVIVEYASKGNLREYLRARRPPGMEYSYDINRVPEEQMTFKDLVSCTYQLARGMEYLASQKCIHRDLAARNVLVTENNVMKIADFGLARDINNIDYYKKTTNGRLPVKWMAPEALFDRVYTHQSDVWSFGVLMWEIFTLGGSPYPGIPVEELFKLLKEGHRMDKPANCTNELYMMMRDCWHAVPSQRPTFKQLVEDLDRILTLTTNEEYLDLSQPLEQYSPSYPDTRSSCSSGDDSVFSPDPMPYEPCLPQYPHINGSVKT
Chain of Recombinant human FGFR1 (P11362 22-822): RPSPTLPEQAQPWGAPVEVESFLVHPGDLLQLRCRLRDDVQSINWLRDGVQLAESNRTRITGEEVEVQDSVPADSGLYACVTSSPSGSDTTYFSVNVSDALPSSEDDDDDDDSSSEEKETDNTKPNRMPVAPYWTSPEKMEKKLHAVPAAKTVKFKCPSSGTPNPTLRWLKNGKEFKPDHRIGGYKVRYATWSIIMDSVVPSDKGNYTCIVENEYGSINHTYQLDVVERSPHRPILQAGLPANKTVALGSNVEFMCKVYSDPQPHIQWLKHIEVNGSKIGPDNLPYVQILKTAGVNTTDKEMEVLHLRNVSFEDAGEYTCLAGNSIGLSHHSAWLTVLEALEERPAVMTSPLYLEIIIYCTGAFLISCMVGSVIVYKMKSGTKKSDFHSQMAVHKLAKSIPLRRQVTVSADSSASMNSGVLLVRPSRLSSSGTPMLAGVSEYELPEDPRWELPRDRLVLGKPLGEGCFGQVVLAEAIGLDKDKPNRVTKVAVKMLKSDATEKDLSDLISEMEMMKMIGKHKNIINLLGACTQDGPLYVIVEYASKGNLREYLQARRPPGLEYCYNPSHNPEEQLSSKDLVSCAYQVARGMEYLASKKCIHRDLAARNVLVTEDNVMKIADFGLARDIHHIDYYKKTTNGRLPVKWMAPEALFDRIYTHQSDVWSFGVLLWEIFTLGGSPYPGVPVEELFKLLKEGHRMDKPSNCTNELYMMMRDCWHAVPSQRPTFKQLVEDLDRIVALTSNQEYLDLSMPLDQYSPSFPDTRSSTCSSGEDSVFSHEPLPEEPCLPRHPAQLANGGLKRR
Chain of FGFR3 kinase (P22607 23-806): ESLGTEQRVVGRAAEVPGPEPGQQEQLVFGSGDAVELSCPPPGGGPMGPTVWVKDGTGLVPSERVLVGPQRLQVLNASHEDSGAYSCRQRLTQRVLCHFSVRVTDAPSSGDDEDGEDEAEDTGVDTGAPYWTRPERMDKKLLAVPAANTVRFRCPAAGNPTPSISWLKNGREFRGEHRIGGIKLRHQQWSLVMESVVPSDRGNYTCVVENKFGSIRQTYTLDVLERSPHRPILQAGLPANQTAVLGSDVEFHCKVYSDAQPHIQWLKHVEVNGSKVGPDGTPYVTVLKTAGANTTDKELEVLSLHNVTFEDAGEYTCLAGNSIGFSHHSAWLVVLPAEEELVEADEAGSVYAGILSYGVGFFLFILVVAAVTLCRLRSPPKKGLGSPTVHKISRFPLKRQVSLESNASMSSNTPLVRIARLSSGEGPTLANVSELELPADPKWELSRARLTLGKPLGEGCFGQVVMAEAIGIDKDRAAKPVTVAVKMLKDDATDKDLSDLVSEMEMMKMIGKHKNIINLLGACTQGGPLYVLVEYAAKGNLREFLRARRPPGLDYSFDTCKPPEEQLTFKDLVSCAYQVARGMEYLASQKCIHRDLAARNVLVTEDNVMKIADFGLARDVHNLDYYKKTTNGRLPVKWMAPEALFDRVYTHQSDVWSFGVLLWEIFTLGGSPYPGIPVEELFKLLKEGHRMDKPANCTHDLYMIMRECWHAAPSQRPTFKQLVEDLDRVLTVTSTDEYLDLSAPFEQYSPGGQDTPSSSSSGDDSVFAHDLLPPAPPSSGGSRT

For orientation: IC50 means the concentration that gives 50% inhibition. As for `CNC(=O)c1cc(OC)c(Cl)c(COc2cnc(Nc3ccc(N4C[C@@H](C)N[C@@H](C)C4)c(F)c3)nc2)c1F` [Compound 299], the IC50 on Recombinant human FGFR2 (FP) stood at 0.006 µM; at Recombinant human FGFR1 (FP), 0.006 µM; in the assay with KG-1 it was 0.007 µM; in the assay on RT-112, 0.015 µM; at FGFR3 kinase (Z-lyte), 0.008 µM; in the assay with SNU-16 it was 0.011 µM.
As to `CNC(=O)c1cc(COc2cnc(Nc3ccc(=O)n(C4CCCC4)c3)nc2)c(F)c(OC)c1` [Compound 237], the 50% inhibitory concentration (IC50) was 0.027 µM at Recombinant human FGFR2 (read-out: FGFR2 (FP) IC50); 0.066 µM at Recombinant human FGFR1 (read-out: FGFR1 (FP) IC50); 0.079 µM with KG-1; 0.134 µM with RT-112; 0.029 µM against FGFR3 kinase; 0.042 µM with SNU-16.
As for `CCN(CC)CCOc1ccc(Nc2ncc(OCc3cc(C(=O)NC)cc(OC)c3F)cn2)cc1` [Compound 262], the concentration for half-maximal inhibition (IC50) on Recombinant human FGFR2 (read-out: FGFR2 (FP) IC50) came to 0.02 µM; on Recombinant human FGFR1 (read-out: FGFR1 (FP) IC50), 0.043 µM; in the assay with KG-1 it was 0.037 µM; with RT-112, 0.133 µM; against FGFR3 kinase it was 0.021 µM; in the assay on SNU-16 it was 0.029 µM.
For `CNC(=O)c1cc(COc2cnc(Nc3ccc([C@H]4CCCNC4)nc3)nc2)c(Cl)c(OC)c1` [Compound 245], the IC50 at Recombinant human FGFR2 (read-out: FGFR2 (FP) IC50) worked out at 0.017 µM; at Recombinant human FGFR1 (read-out: FGFR1 (FP) IC50), 0.016 µM; in the assay with KG-1, 0.533 µM; in the assay on RT-112 it was 0.581 µM; against FGFR3 kinase, 0.018 µM; with SNU-16, 0.136 µM.
Consider `CNC(=O)c1cc(COc2cnc(Nc3ccc(OC)c(OC)c3)nc2)c(F)c(OC)c1` [Compound 218], for which the half-inhibitory concentration (IC50) at Recombinant human FGFR2 (read-out: FGFR2 (FP) IC50) stood at 0.012 µM; on Recombinant human FGFR1 (read-out: FGFR1 (FP) IC50), 0.025 µM; with KG-1, 0.027 µM; in the assay with RT-112 it was 0.044 µM; against FGFR3 kinase, 0.021 µM; in the assay on SNU-16 it was 0.007 µM.

(Values after patent publication US9701680B2, “Pyrimidine and pyridine compounds and their usage” (HUTCHISON MEDIPHARMA LIMITED, priority 2013, dated 2017).)
